# According to publication PMC7158045 (BMC Plant Biology, 2020):
# Where a name gives a salt, the structure may show the parent alone. Read-outs that look alike come from different tables or passages of the source.
# Experiments:
# Experiment in all cases: biochemical
# [1] = molecular target: T1, ZmDRIK1-K217-S514 (Zea mays, UniProt C0P4K9)
# T1 construct: kinase domain, K217-S514
# T1 sequence (C0P4K9 1-514): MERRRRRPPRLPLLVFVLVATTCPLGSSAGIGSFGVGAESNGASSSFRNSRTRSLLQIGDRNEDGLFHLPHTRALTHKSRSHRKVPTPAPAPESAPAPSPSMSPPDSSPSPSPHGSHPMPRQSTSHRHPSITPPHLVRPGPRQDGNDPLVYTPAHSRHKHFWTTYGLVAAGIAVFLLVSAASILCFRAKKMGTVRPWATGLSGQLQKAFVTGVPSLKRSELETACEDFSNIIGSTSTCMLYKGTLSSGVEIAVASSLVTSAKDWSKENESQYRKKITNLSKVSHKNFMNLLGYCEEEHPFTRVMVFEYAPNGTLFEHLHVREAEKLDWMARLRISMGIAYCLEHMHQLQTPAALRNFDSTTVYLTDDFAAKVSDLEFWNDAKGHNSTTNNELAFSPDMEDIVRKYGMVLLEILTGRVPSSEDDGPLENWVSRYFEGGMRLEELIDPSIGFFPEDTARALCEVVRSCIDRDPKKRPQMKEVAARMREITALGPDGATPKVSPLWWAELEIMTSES
# [2] = molecular target: T2, ZmDRIK1 (DROUGHT RESPONSIVE INACTIVE KINASE 1), kinase domain (Zea mays, UniProt C0P4K9); details: DSF, Boltzmann fit, 0.1% DMSO; for ΔTm at 10 µM: read-out: dTm B, sheet ZmDRIK1-R187-S514;; for dTm B: sheet ZmDRIK1-R187-S514;, 10 µM, binder
# T2 construct: gene ZEAMMB73_Zm00001d028770; ZmDRIK1-KD R187-S514 (kinase domain)
# T2 sequence (C0P4K9 187-514): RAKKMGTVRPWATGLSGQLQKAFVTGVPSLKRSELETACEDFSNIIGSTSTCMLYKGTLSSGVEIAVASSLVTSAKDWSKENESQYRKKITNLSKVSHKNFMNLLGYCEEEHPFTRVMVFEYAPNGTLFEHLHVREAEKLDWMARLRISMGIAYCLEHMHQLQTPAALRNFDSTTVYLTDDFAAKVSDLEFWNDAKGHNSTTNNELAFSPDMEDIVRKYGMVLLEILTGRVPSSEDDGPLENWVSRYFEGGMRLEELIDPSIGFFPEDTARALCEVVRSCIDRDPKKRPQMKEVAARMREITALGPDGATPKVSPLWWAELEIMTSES
# [3] = molecular target: T3, ZmDRIK1-K217-P492 (Zea mays, UniProt C0P4K9)
# T3 construct: kinase domain, K217-P492
# T3 sequence (C0P4K9 1-514): T1 sequence (C0P4K9 1-514)
# [4] = molecular target: T4, ZmDRIK1-R187-P492 (Zea mays, UniProt C0P4K9)
# T4 construct: kinase domain, R187-P492
# T4 sequence (C0P4K9 1-514): T1 sequence (C0P4K9 1-514)
# [5] = read-out: dTm B, sheet ZmDRIK1-K217-S514;, DSF, Boltzmann fit, 0.1% DMSO
# [6] = read-out: dTm B, sheet ZmDRIK1-K217-P492;, DSF, Boltzmann fit, 0.1% DMSO
# [7] = read-out: dTm B, DSF, Boltzmann fit, 0.1% DMSO
"ΔTm at 10 µM [1, 5] [°C]",ΔTm at 10 µM [2] [°C],"ΔTm at 10 µM [3, 6] [°C]","ΔTm at 10 µM [4, 7] [°C]",Compound,also measured
-0.62,-0.534,-0.834,-0.47,O=C1NC(=O)C(=Cc2ccc(-c3ccc(F)cc3)o2)S1 (stereo in doubt) [CAY10505],–
-0.731,-1.07,-0.671,-0.18,Nc1ncnc2c1c(-c1cccc(OCc3ccccc3)c1)cn2C1CC(CN2CCCC2)C1 (stereo in doubt) [NVP-ADW742],–
-0.375,-0.528,-0.621,-0.274,Cn1cnc(N)c2ncnc1-2 [3-Methyladenine],–
-0.172,-1.27,-1.02,-0.741,CCc1ccc(C=C2SC(=S)NC2=O)cc1 [10058-F4],–
-0.323,-0.746,-0.988,-0.295,Cc1nc(NC(=O)N2CCC[C@H]2C(N)=O)sc1-c1csc(C(C)(C)C)n1 [A66],–
-0.328,-0.493,-0.898,-0.417,Cc1[nH]nc2ccc(-c3cncc(OC[C@@H](N)Cc4ccccc4)c3)cc12 [A-674563],–
-0.453,-1.11,-1.24,-0.292,N#Cc1c(O)c2c(-c3ccc(-c4ccccc4O)cc3)csc2[nH]c1=O [A-769662],–
-0.265,-0.997,-0.766,-0.278,Cc1c(NC(=O)OC[C@@H]2COCCN2)cn2ncnc(Nc3ccc4c(cnn4Cc4cccc(F)c4)c3)c12 [AC480 (BMS-599626)],–
-0.297,-0.878,-0.494,-0.159,CCN1CCN(Cc2ccc(-c3cc4c(N[C@H](C)c5ccccc5)ncnc4[nH]3)cc2)CC1 [AEE788 (NVP-AEE788)],–
-0.362,–,-0.987,-0.259,COc1cc(N2CCC(N3CCN(C)CC3)CC2)ccc1Nc1ncc(Cl)c(Nc2ccccc2P(C)(C)=O)n1 [AP26113],–
-0.322,–,-0.776,-0.122,Cc1ccc(NC(=O)c2cccc(C(C)(C)C#N)c2)cc1Nc1ccc2ncn(C)c(=O)c2c1 [AZ 628],–
-3.2,–,9.06,-10.8,S=C(NCc1ccc2c(c1)OCO2)N1CCN(c2ncnc3c2oc2ccccc23)CC1 [Amuvatinib (MP-470)],–
0.245,–,-0.378,-0.244,COc1ccc(-c2ccc3ncc4c(c3c2)n(-c2ccc(N3CCNCC3)c(C(F)(F)F)c2)c(=O)n4C)cn1 [BGT226 (NVP-BGT226)],–
–,-14.9,–,–,COc1cc2nccc(Oc3ccc(NC(=O)C4(C(=O)Nc5ccc(F)cc5)CC4)cc3)c2cc1OC [Cabozantinib malate (XL184)],–
-0.67,-0.958,–,-0.336,C[C@@H](Oc1cc(-c2cnn(C3CCNCC3)c2)cnc1N)c1c(Cl)ccc(F)c1Cl [Crizotinib (PF-02341066)],–
-0.366,–,-1.14,-0.533,CC(C)(C)c1nc(-c2cccc(NS(=O)(=O)c3c(F)cccc3F)c2F)c(-c2ccnc(N)n2)s1 [Dabrafenib (GSK2118436)],–
–,–,–,–,CN1CCN(c2ccc3nc(-c4c(N)c5c(F)cccc5[nH]c4=O)[nH]c3c2)CC1 [Dovitinib (TKI-258) Dilactic Acid],dTm B [2]: -0.2117 degC
–,–,–,–,CN1CCN(c2ccc3nc(-c4c(N)c5c(F)cccc5[nH]c4=O)[nH]c3c2)CC1 [Dovitinib (TKI-258)],dTm B [2]: -0.003273 degC
-14.7,–,-14.9,5.58,COc1cc2c(Oc3ccc(NC(=O)C4(C(=O)Nc5ccc(F)cc5)CC4)cc3F)ccnc2cc1OCCCN1CCOCC1 [Foretinib (GSK1363089)],–
-0.386,0.265,-0.895,–,CCc1cc(Nc2nccc(-c3c(-c4ccc(OC)c(C(=O)Nc5c(F)cccc5F)c4)nc4ccccn34)n2)c(OC)cc1N1CCC(N2CCN(S(C)(=O)=O)CC2)CC1 [GSK1904529A],–
–,-0.74,–,–,NS(=O)(=O)c1ccc(N/C=C2\C(=O)Nc3ccc4ncsc4c32)cc1 [GW297361X],–

"ΔTm at 10 µM [1, 5] [°C]",ΔTm at 10 µM [2] [°C],"ΔTm at 10 µM [3, 6] [°C]","ΔTm at 10 µM [4, 7] [°C]",Compound,also measured
-13.4,–,-18.8,-17.5,O=c1c(-c2ccc(O)cc2)coc2cc(O)cc(O)c12 [Genistein],–
-0.589,–,-0.321,-0.397,COc1cc2nccc(Oc3ccc(NC(=O)Nc4ccc(F)cc4F)c(F)c3)c2cc1OC [Ki8751],–
–,–,–,–,COc1ncccc1-c1cnn2ccc(N3CCN(C(=O)OC(C)C)CC3)nc12 [LP-935509 (AAK1)],ΔTm at 10 µM ([1]; read-out: dTm B): -0.536 °C; ΔTm at 10 µM ([3]; read-out: dTm B): -0.638 °C; ΔTm at 10 µM ([4]; read-out: dTm B): -0.447 °C
-16,–,-0.876,1.26,CS(=O)(=O)CCNCc1ccc(-c2ccc3ncnc(Nc4ccc(OCc5cccc(F)c5)c(Cl)c4)c3c2)o1 [Lapatinib (GW-572016) Ditosylate],–
-0.402,-1,-1.12,–,CN(C[C@@H]1COCCO1)S(=O)(=O)Nc1ccc2ccc3ncc(-c4cnn(C)c4)cc3c(=O)c2c1 [MK-2461],–
0.792,–,-1.2,-0.348,O=C(NOCC1CC1)c1ccc(F)c(F)c1Nc1ccc(I)cc1Cl [PD184352 (CI-1040)],–
–,–,–,–,CN(c1ncccc1CNc1nc(Nc2ccc3c(c2)CC(=O)N3)ncc1C(F)(F)F)S(C)(=O)=O [PF-00562271],dTm B [2]: -0.8176 degC
–,–,–,–,CN(c1ncccc1CNc1nc(Nc2ccc3c(c2)CC(=O)N3)ncc1C(F)(F)F)S(C)(=O)=O [PF-562271],dTm B [2]: -0.5293 degC
-0.219,-0.759,-0.666,–,CCc1cncnc1N1CCN(Cc2nc3ccc(C(F)(F)F)cc3[nH]2)CC1 [PF-4708671],–
–,–,–,–,Cc1ccc(Nc2nccc(N(C)c3ccc4c(C)n(C)nc4c3)n2)cc1S(N)(=O)=O [Pazopanib HCl (GW786034 HCl)],dTm B [2]: -0.83 degC
–,–,–,–,Cc1ccc(Nc2nccc(N(C)c3ccc4c(C)n(C)nc4c3)n2)cc1S(N)(=O)=O [Pazopanib],dTm B [2]: -0.7756 degC
–,–,–,–,COc1cc(Nc2ncc(F)c(Nc3ccc4c(n3)NC(=O)C(C)(C)O4)n2)cc(OC)c1OC [R406 (free base)],dTm B [2]: -0.8381 degC
–,–,–,–,COc1cc(Nc2ncc(F)c(Nc3ccc4c(n3)NC(=O)C(C)(C)O4)n2)cc(OC)c1OC [R406],dTm B [2]: -1.004 degC
10.1,–,0.39,-2.04,Cn1c(Nc2ccc(C(F)(F)F)cc2)nc2cc(Oc3ccnc(-c4ncc(C(F)(F)F)[nH]4)c3)ccc21 [RAF265 (CHIR-265)],–
–,–,–,–,N#CC[C@H](C1CCCC1)n1cc(-c2ncnc3[nH]ccc23)cn1 [Ruxolitinib (INCB018424)],dTm B [2]: -0.7708 degC
–,–,–,–,N#CC[C@H](C1CCCC1)n1cc(-c2ncnc3[nH]ccc23)cn1 [S-Ruxolitinib (INCB018424)],dTm B [2]: -0.5823 degC
-0.406,-0.884,-0.939,–,COc1c(C)c(C(=O)c2ccc(N)c(C(=O)O)c2)n2ccccc12 [SSR128129E],–
–,-12,–,–,CNC(=O)c1cc(Oc2ccc(NC(=O)Nc3ccc(Cl)c(C(F)(F)F)c3)cc2)ccn1 [Sorafenib Tosylate],–
0.285,-0.582,–,0.149,NC(=O)Nc1sc(-c2ccc(F)cc2)cc1C(N)=O [TPCA-1],–
-0.322,–,-0.531,-0.3,Nc1ccc(-c2ccc3ncc4ccc(=O)n(-c5cccc(C(F)(F)F)c5)c4c3c2)cn1 [Torin 2],–
-0.412,-0.649,-0.91,–,CNC(=O)Nc1ccc(-c2nc(N3CC4CCC(C3)O4)c3cnn(C4CCC5(CC4)OCCO5)c3n2)cc1 [WYE-125132 (WYE-132)],–

Compound,"ΔTm at 10 µM [1, 5] [°C]",ΔTm at 10 µM [2] [°C],"ΔTm at 10 µM [3, 6] [°C]","ΔTm at 10 µM [4, 7] [°C]",also measured
Cc1ccccc1-n1c(Cn2ncc3c(N)ncnc32)nc2cccc(C)c2c1=O [PIK-293],–,-1.14,-1.04,-0.695,–
